The source made the active and inactive calls. The rule behind the calls is not given here. Non-standard residues stand in square brackets, D forms with d. Residues, ends and D or L forms follow the SMILES beside them. ξ: configuration not given here. Cha = N[C@@H](CC1CCCCC1)C(=O)O; ξNle = CCCCC(N)C(=O)O
Experiments:
[1] = biological target: Glucagon receptor (Homo sapiens) (UniProt P47871); assay: Agonist activity at human GCGR expressed in HEK293 cells after 5 hrs by luciferase reporter gene assay; type: cell-based
Sequence of Glucagon receptor (Homo sapiens) (P47871 whole entry): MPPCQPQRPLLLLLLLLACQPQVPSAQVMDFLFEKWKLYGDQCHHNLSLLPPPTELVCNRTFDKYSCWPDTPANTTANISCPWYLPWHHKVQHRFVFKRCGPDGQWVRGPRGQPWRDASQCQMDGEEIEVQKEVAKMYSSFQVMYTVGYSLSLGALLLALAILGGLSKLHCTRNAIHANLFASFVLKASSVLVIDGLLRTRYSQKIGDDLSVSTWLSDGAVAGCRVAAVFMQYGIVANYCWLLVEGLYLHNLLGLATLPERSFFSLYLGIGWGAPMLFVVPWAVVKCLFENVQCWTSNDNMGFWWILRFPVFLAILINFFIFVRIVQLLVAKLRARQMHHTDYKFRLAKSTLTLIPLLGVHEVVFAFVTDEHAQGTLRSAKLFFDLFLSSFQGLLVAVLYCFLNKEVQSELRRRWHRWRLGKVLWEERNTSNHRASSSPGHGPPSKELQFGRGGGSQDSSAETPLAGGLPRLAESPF

[2] = biological target: T1, Glucagon-like peptide 1 receptor (Homo sapiens, UniProt P43220); assay: Agonist activity at human GLP1R expressed in HEK293 cells at 30 nM after 5 hrs by luciferase reporter gene assay; type: cell-based
T1 sequence (P43220 whole entry): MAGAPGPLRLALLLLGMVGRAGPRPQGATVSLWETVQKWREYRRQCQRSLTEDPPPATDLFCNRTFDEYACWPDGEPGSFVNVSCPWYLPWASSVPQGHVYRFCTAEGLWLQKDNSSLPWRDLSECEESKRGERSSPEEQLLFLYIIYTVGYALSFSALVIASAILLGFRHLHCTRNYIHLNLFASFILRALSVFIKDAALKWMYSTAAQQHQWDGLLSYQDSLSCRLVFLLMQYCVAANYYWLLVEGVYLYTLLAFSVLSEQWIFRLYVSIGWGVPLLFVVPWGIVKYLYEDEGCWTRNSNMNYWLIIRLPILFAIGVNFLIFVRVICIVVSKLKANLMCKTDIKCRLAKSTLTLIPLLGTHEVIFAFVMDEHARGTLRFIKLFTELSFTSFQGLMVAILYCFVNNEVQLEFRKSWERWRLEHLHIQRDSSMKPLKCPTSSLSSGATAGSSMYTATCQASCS

[3] = Systemic clearance in Sprague-Dawley rat at 0.2 mg/kg, iv through cassette dosing measured up to 300 mins by LC/MS/MS analysis; type: ADME, organism-based; details: in vivo
[4] = biological target: T2, Glucagon-like peptide 2 receptor (Homo sapiens, UniProt O95838); assay: Agonist activity at human GLP2R expressed in HEK293 cells after 5 hrs by luciferase reporter gene assay; type: cell-based
T2 sequence (O95838 whole entry): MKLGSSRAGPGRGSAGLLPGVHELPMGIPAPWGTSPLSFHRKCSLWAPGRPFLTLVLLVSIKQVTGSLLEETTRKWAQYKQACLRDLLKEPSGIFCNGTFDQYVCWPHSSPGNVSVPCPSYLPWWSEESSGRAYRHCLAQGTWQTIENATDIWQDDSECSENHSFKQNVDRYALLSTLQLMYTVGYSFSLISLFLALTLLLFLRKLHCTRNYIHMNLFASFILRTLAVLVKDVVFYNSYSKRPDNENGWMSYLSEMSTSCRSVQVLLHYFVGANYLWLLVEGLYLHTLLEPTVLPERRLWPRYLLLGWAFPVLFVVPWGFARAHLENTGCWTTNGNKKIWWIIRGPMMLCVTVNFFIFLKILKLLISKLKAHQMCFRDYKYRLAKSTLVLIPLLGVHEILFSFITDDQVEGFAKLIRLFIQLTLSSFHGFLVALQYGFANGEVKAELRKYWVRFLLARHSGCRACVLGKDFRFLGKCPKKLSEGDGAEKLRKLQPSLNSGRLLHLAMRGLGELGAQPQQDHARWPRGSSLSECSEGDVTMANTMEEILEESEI

HEK293 = assay: Selectivity ratio of EC50 for human GLP1R expressed in HEK293 cells to EC50 for human GLP2R expressed in HEK293; type: cell-based
[5] = biological target: T1, Glucagon-like peptide 1 receptor; assay: Agonist activity at human GLP1R expressed in HEK293 cells after 5 hrs by luciferase reporter gene assay; type: cell-based

Structure (SMILES) | Activity [1] | Efficacy [2] [%] | clearance [3] [mL/min/kg] | EC50 ([4]; hek293) [nM] | Ratio EC50 (HEK293) | EC50 ([5]; hek293) [nM] | EC50 [4] [nM] | EC50 [5] [nM]
CCCCC(NC(=O)[C@@H](CCC(=O)O)NC(=O)[C@@H](CC(=O)O)NC(=O)[C@@H](CO)NC(=O)[C@@H](Cc1ccccc1)NC(=O)[C@@H](CO)NC(=O)CNC(=O)[C@@H](CC(=O)O)NC(=O)CNC(=O)[C@@H](N)Cc1cnc[nH]1)C(=O)NC(Cc1ccc(Cl)cc1)C(=O)N[C@H](C(=O)N[C@H](C(=O)N[C@@H](CC(C)C)C(=O)N[C@@H](CC(=O)O)C(=O)N[C@@H](CC(N)=O)C(=O)N[C@@H](CC(C)C)C(=O)N[C@@H](C)C(=O)N[C@@H](C)C(=O)N[C@@H](CCCNC(=N)N)C(=O)N[C@@H](CC(=O)O)C(=O)N[C@@H](Cc1ccccc1)C(=O)N[C@H](C(=O)N[C@@H](CC(N)=O)C(=O)N[C@H](Cc1c[nH]c2ccccc12)C(=O)N[C@H](CC(C)C)C(=O)N[C@@H](C(=O)N[C@H](CCC(N)=O)C(=O)N[C@@H](C(=O)N[C@@H](CCCCN)C(N)=O)[C@H](C)O)[C@@H](C)CC)[C@H](C)CC)[C@H](C)CC)[C@@H](C)O (stereo partly drawn) | inactive | 89 | 0.55 | 0.16 | 55 | 8.8 |  | 
CCCCC(NC(=O)[C@H](CCC(=O)O)NC(=O)[C@H](CC(=O)O)NC(=O)[C@H](CO)NC(=O)[C@H](Cc1ccccc1)NC(=O)[C@H](CO)NC(=O)CNC(=O)[C@H](CC(=O)O)NC(=O)CNC(=O)[C@@H](N)Cc1cnc[nH]1)C(=O)N[C@@H](Cc1c[nH]c2ccccc12)C(=O)N[C@H](C(=O)N[C@H](C(=O)N[C@@H](CC(C)C)C(=O)N[C@@H](CC(=O)O)C(=O)N[C@@H](CC(N)=O)C(=O)N[C@@H](CC(C)C)C(=O)N[C@@H](C)C(=O)N[C@@H](C)C(=O)N[C@@H](CCCNC(=N)N)C(=O)N[C@@H](CC(=O)O)C(=O)N[C@@H](Cc1ccccc1)C(=O)N[C@H](C(=O)N[C@@H](CC(N)=O)C(=O)N[C@@H](Cc1c[nH]c2ccccc12)C(=O)N[C@@H](CC(C)C)C(=O)N[C@H](C(=O)N[C@@H](CCC(N)=O)C(=O)N[C@H](C(=O)N[C@@H](CCCCN)C(N)=O)[C@@H](C)O)[C@@H](C)CC)[C@@H](C)CC)[C@@H](C)CC)[C@@H](C)O (stereo partly drawn) | inactive | 35 | 0.71 |  | 260 |  | 0.21 | 56
CCCCC(NC(=O)[C@H](CCC(=O)O)NC(=O)[C@H](CC(=O)O)NC(=O)[C@H](CO)NC(=O)[C@H](Cc1ccccc1)NC(=O)[C@H](CO)NC(=O)CNC(=O)[C@H](CC(=O)O)NC(=O)CNC(=O)[C@@H](N)Cc1cnc[nH]1)C(=O)N[C@H](Cc1ccc(O)cc1)C(=O)N[C@H](C(=O)N[C@H](C(=O)N[C@@H](CC(C)C)C(=O)N[C@@H](CC(=O)O)C(=O)N[C@@H](CC(N)=O)C(=O)N[C@@H](CC(C)C)C(=O)N[C@@H](C)C(=O)N[C@@H](C)C(=O)N[C@@H](CCCNC(=N)N)C(=O)N[C@@H](CC(=O)O)C(=O)N[C@@H](Cc1ccccc1)C(=O)N[C@H](C(=O)N[C@@H](CC(N)=O)C(=O)N[C@@H](Cc1c[nH]c2ccccc12)C(=O)N[C@@H](CC(C)C)C(=O)N[C@H](C(=O)N[C@@H](CCC(N)=O)C(=O)N[C@H](C(=O)N[C@@H](CCCCN)C(N)=O)[C@@H](C)O)[C@@H](C)CC)[C@@H](C)CC)[C@@H](C)CC)[C@@H](C)O (stereo partly drawn) | inactive | 68 | 4.9 |  | 170 |  | 0.18 | 32
CCCCC(NC(=O)[C@H](CCC(=O)O)NC(=O)[C@H](CC(=O)O)NC(=O)[C@H](CO)NC(=O)[C@H](Cc1ccccc1)NC(=O)[C@H](CO)NC(=O)CNC(=O)[C@H](CC(=O)O)NC(=O)CNC(=O)[C@@H](N)Cc1cnc[nH]1)C(=O)N[C@H](Cc1cccc(Cl)c1)C(=O)N[C@H](C(=O)N[C@H](C(=O)N[C@@H](CC(C)C)C(=O)N[C@@H](CC(=O)O)C(=O)N[C@@H](CC(N)=O)C(=O)N[C@@H](CC(C)C)C(=O)N[C@@H](C)C(=O)N[C@@H](C)C(=O)N[C@@H](CCCNC(=N)N)C(=O)N[C@@H](CC(=O)O)C(=O)N[C@@H](Cc1ccccc1)C(=O)N[C@H](C(=O)N[C@@H](CC(N)=O)C(=O)N[C@@H](Cc1c[nH]c2ccccc12)C(=O)N[C@@H](CC(C)C)C(=O)N[C@H](C(=O)N[C@@H](CCC(N)=O)C(=O)N[C@H](C(=O)N[C@@H](CCCCN)C(N)=O)[C@@H](C)O)[C@@H](C)CC)[C@@H](C)CC)[C@@H](C)CC)[C@@H](C)O (stereo partly drawn) | inactive | 73 | 0.32 |  | 400 |  | 0.11 | 45
CCCCC(NC(=O)[C@H](CCC(=O)O)NC(=O)[C@H](CC(=O)O)NC(=O)[C@H](CO)NC(=O)[C@H](Cc1ccccc1)NC(=O)[C@H](CO)NC(=O)CNC(=O)[C@H](CC(=O)O)NC(=O)CNC(=O)[C@@H](N)Cc1cnc[nH]1)C(=O)N[C@@H](CC1CCCCC1)C(=O)N[C@H](C(=O)N[C@H](C(=O)N[C@@H](CC(C)C)C(=O)N[C@@H](CC(=O)O)C(=O)N[C@@H](CC(N)=O)C(=O)N[C@@H](CC(C)C)C(=O)N[C@@H](C)C(=O)N[C@@H](C)C(=O)N[C@@H](CCCNC(=N)N)C(=O)N[C@@H](CC(=O)O)C(=O)N[C@@H](Cc1ccccc1)C(=O)N[C@H](C(=O)N[C@@H](CC(N)=O)C(=O)N[C@@H](Cc1c[nH]c2ccccc12)C(=O)N[C@@H](CC(C)C)C(=O)N[C@H](C(=O)N[C@@H](CCC(N)=O)C(=O)N[C@H](C(=O)N[C@@H](CCCCN)C(N)=O)[C@@H](C)O)[C@@H](C)CC)[C@@H](C)CC)[C@@H](C)CC)[C@@H](C)O (stereo partly drawn) (H-HGDGSFSDE[ξNle][Cha]TILDNLAARDFINWLIQTK-NH2) | inactive | 83 | 0.69 |  | 17 |  | 0.51 | 8.9
CCCCC(NC(=O)[C@H](CCC(=O)O)NC(=O)[C@H](CC(=O)O)NC(=O)[C@H](CO)NC(=O)[C@H](Cc1ccccc1)NC(=O)[C@H](CO)NC(=O)CNC(=O)[C@H](CC(=O)O)NC(=O)CNC(=O)[C@@H](N)Cc1cnc[nH]1)C(=O)N[C@H](Cc1ccsc1)C(=O)N[C@H](C(=O)N[C@H](C(=O)N[C@@H](CC(C)C)C(=O)N[C@@H](CC(=O)O)C(=O)N[C@@H](CC(N)=O)C(=O)N[C@@H](CC(C)C)C(=O)N[C@@H](C)C(=O)N[C@@H](C)C(=O)N[C@@H](CCCNC(=N)N)C(=O)N[C@@H](CC(=O)O)C(=O)N[C@@H](Cc1ccccc1)C(=O)N[C@H](C(=O)N[C@@H](CC(N)=O)C(=O)N[C@@H](Cc1c[nH]c2ccccc12)C(=O)N[C@@H](CC(C)C)C(=O)N[C@H](C(=O)N[C@@H](CCC(N)=O)C(=O)N[C@H](C(=O)N[C@@H](CCCCN)C(N)=O)[C@@H](C)O)[C@@H](C)CC)[C@@H](C)CC)[C@@H](C)CC)[C@@H](C)O (stereo partly drawn) | inactive | 39 | 1.3 |  | 920 |  | 0.09 | 83
CCCCC(NC(=O)[C@H](CCC(=O)O)NC(=O)[C@H](CC(=O)O)NC(=O)[C@H](CO)NC(=O)[C@H](Cc1ccccc1)NC(=O)[C@H](CO)NC(=O)CNC(=O)[C@H](CC(=O)O)NC(=O)CNC(=O)[C@@H](N)Cc1cnc[nH]1)C(=O)N[C@H](Cc1ccccc1Cl)C(=O)N[C@H](C(=O)N[C@H](C(=O)N[C@@H](CC(C)C)C(=O)N[C@@H](CC(=O)O)C(=O)N[C@@H](CC(N)=O)C(=O)N[C@@H](CC(C)C)C(=O)N[C@@H](C)C(=O)N[C@@H](C)C(=O)N[C@@H](CCCNC(=N)N)C(=O)N[C@@H](CC(=O)O)C(=O)N[C@@H](Cc1ccccc1)C(=O)N[C@H](C(=O)N[C@@H](CC(N)=O)C(=O)N[C@@H](Cc1c[nH]c2ccccc12)C(=O)N[C@@H](CC(C)C)C(=O)N[C@H](C(=O)N[C@@H](CCC(N)=O)C(=O)N[C@H](C(=O)N[C@@H](CCCCN)C(N)=O)[C@@H](C)O)[C@@H](C)CC)[C@@H](C)CC)[C@@H](C)CC)[C@@H](C)O (stereo partly drawn) | inactive | 36 | 0.73 |  | 900 |  | 0.11 | 100
CCCCC(NC(=O)[C@H](CCC(=O)O)NC(=O)[C@H](CC(=O)O)NC(=O)[C@H](CO)NC(=O)[C@H](Cc1ccccc1)NC(=O)[C@H](CO)NC(=O)CNC(=O)[C@H](CC(=O)O)NC(=O)CNC(=O)[C@@H](N)Cc1cnc[nH]1)C(=O)N[C@@H](Cc1ccccc1)C(=O)N[C@H](C(=O)N[C@H](C(=O)N[C@@H](CC(C)C)C(=O)N[C@@H](CC(=O)O)C(=O)N[C@@H](CC(N)=O)C(=O)N[C@@H](CC(C)C)C(=O)N[C@@H](C)C(=O)N[C@@H](C)C(=O)N[C@@H](CCCNC(=N)N)C(=O)N[C@@H](CC(=O)O)C(=O)N[C@@H](Cc1ccccc1)C(=O)N[C@H](C(=O)N[C@@H](CC(N)=O)C(=O)N[C@@H](Cc1c[nH]c2ccccc12)C(=O)N[C@@H](CC(C)C)C(=O)N[C@H](C(=O)N[C@@H](CCC(N)=O)C(=O)N[C@H](C(=O)N[C@@H](CCCCN)C(N)=O)[C@@H](C)O)[C@@H](C)CC)[C@@H](C)CC)[C@@H](C)CC)[C@@H](C)O (stereo partly drawn) | inactive | 94 | 1.8 |  | 100 |  | 0.15 | 16

Reference: ChEMBL document CHEMBL3822442, “Synthesis and Pharmacological Characterization of Novel Glucagon-like Peptide-2 (GLP-2) Analogues with Low Systemic Clearance” (J Med Chem, 2016)
